This passage reports pest or weed control results from patent US8865623B2, “Herbicidally active cyclic diones and derivatives thereof, processes for their preparation, compositions, and method of controlling weeds” (Syngenta Limited, priority 2009, dated 2014).

Common to all, as to type: in vivo
Experiment [1] deals with Echinochloa crus-galli (ECHCG). In words: Post-emergence herbicidal activity, glasshouse pot test. The following applies: Echinochloa crus-galli, 312 h, rate 250 g/ha, evaluated after 13 days, glasshouse, read-out: Post-emergence activity ECHCG (100=total damage to plant; 0=no damage to plant). An outline of the steps:
(§1)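 Rating: 0 (no damage) to 100 (total damage), 13 days after application. Application: aqueous spray from a.i. in acetone/water (50:50) + 0.5% Tween 20, one day (pre) or 8 days (post) after sowing. Glasshouse: 24/16° C, 14 h light, 65% humidity.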

Experiment [2] deals with Lolium perenne (LOLPE). The description is as above. The conditions noted are these: Lolium perenne, 312 h, rate 250 g/ha, evaluated after 13 days, glasshouse, read-out: Post-emergence activity LOLPE (100=total damage to plant; 0=no damage to plant). Put shortly: as §1
The subject of experiment [3] is Alopecurus myosuroides (ALOMY). Described as above. The conditions noted are these: Alopecurus myosuroides, 312 h, rate 250 g/ha, evaluated after 13 days, glasshouse, read-out: Post-emergence activity ALOMY (100=total damage to plant; 0=no damage to plant). Put shortly: as §1
For experiment [4], the system named is Avena fatua (AVEFA). Described as above. The following applies: Avena fatua, 312 h, rate 250 g/ha, evaluated after 13 days, glasshouse, read-out: Post-emergence activity AVEFA (100=total damage to plant; 0=no damage to plant). Put shortly: as §1
The test system of experiment [5] is Echinochloa crus-galli (ECHCG). In words: Pre-emergence herbicidal activity, glasshouse pot test. The conditions noted are these: Echinochloa crus-galli, 312 h; Rate 250 g/ha; pre-emergence spray; evaluated after 13 days; read-out: Pre-emergence activity ECHCG (100=total damage to plant; 0=no damage to plant). An outline of the steps:
as §1

In experiment [6] the test system is Lolium perenne (LOLPE). Described as above. The conditions noted are these: Lolium perenne, 312 h; Rate 250 g/ha; pre-emergence spray; evaluated after 13 days; read-out: Pre-emergence activity LOLPE (100=total damage to plant; 0=no damage to plant). Put shortly:
as §1

Experiment [7] deals with Alopecurus myosuroides (ALOMY). Described as above. The conditions noted are these: Alopecurus myosuroides, 312 h; Rate 250 g/ha; pre-emergence spray; evaluated after 13 days; read-out: Pre-emergence activity ALOMY (100=total damage to plant; 0=no damage to plant). Put shortly: as §1
Experiment [8] deals with Avena fatua (AVEFA). Described as above. The conditions noted are these: Avena fatua, 312 h; Rate 250 g/ha; pre-emergence spray; evaluated after 13 days; read-out: Pre-emergence activity AVEFA (100=total damage to plant; 0=no damage to plant). An outline of the steps:
as §1

With `CCc1ccc(Oc2ncc(Br)cn2)cc1C1=C(O)C(C)(C)OC(C)(C)C1=O` [Example A-109], the pest or weed control at 250 g/ha is 100% in experiment [1]; 90% in the experiment on Lolium perenne (LOLPE) [2]; 90% in experiment [3]; 90% with Avena fatua (AVEFA) [4]; 100% in experiment [5]; 80% in the experiment with Lolium perenne (LOLPE) [6]. Also, the pest or weed control at 250 g/ha in experiment [7] came out at 80%; with Avena fatua (AVEFA) [8], 70%.
`CCc1ccc(Oc2ccc(Cl)cc2Cl)cc1C1=C(O)CCC(C)(C)C1=O` [Example A-111]: the pest or weed control at 250 g/ha is 40% in experiment [1]; 50% with Lolium perenne (LOLPE) [2]; 10% in experiment [3]; 0% with Avena fatua (AVEFA) [4]; 40% in experiment [5]; 40% in the experiment with Lolium perenne (LOLPE) [6]. In addition, the results for the pest or weed control at 250 g/ha (in experiment [7]; in the experiment on Avena fatua (AVEFA) [8]) were 10% and 30%, respectively.
For `CCc1ccc(Oc2ccc(Cl)cc2F)cc1C1=C(O)CCC(C)(C)C1=O` [Example A-112], the pest or weed control at 250 g/ha in experiment [1] was 70%; with Lolium perenne (LOLPE) [2], 60%; in experiment [3] it was 20%; in the experiment with Avena fatua (AVEFA) [4], 20%; in experiment [5] it was 60%; in the experiment with Lolium perenne (LOLPE) [6] it was 90%. For the same compound, the pest or weed control at 250 g/ha amounted to 40% in experiment [7] and 30% in the experiment on Avena fatua (AVEFA) [8].
`CCc1ccc(Oc2ccc(Br)cc2)cc1C1=C(O)CCC(C)(C)C1=O` [Example A-113]: the pest or weed control at 250 g/ha in experiment [1] came out at 90%; in the experiment with Lolium perenne (LOLPE) [2] it was 40%; in experiment [3], 10%; with Avena fatua (AVEFA) [4] it was 0%; in experiment [5], 60%; with Lolium perenne (LOLPE) [6], 100%. Besides, the pest or weed control at 250 g/ha (in experiment [7]; in the experiment with Avena fatua (AVEFA) [8]) was 30% throughout.
As to `CCc1ccc(Oc2ccc(Br)cc2F)cc1C1=C(O)CCC(C)(C)C1=O` [Example A-114], the pest or weed control at 250 g/ha came out at 80% in experiment [1]; 50% in the experiment on Lolium perenne (LOLPE) [2]; 10% in experiment [3]; 10% in the experiment on Avena fatua (AVEFA) [4]; 60% in experiment [5]; 90% in the experiment on Lolium perenne (LOLPE) [6]. Also, the values for the pest or weed control at 250 g/ha (in experiment [7]; with Avena fatua (AVEFA) [8]) were 20% and 50%, respectively.
Regarding `CCc1ccc(Oc2nc(C(F)(F)F)c(C#N)s2)cc1C1=C(O)C(C)(C)OC(C)(C)C1=O` [Example A-115], the pest or weed control at 250 g/ha in experiment [1] came to 60%; in the experiment with Lolium perenne (LOLPE) [2], 0%; in experiment [3] it was 0%; in the experiment on Avena fatua (AVEFA) [4], 10%; in experiment [5], 0%; in the experiment on Lolium perenne (LOLPE) [6], 0%. Besides, the pest or weed control at 250 g/ha (in experiment [7]; with Avena fatua (AVEFA) [8]) was 0% throughout.
Take `CCc1ccc(Oc2ccc(C#N)c(F)c2)cc1C1=C(O)C(C)(C)OC(C)(C)C1=O` [Example A-116]: the pest or weed control at 250 g/ha in experiment [1] came to 100%; in the experiment with Lolium perenne (LOLPE) [2] it was 40%; in experiment [3], 80%; in the experiment on Avena fatua (AVEFA) [4] it was 30%; in experiment [5] it was 20%; in the experiment on Lolium perenne (LOLPE) [6], 20%. Further, the pest or weed control at 250 g/ha (in experiment [7]; in the experiment with Avena fatua (AVEFA) [8]) was 0% each time.
Take `CCc1ccc(Oc2cc(F)ccc2C#N)cc1C1=C(O)C(C)(C)OC(C)(C)C1=O` [Example A-117]: the pest or weed control at 250 g/ha was 100% in experiment [1]; 40% in the experiment on Lolium perenne (LOLPE) [2]; 80% in experiment [3]; 30% in the experiment on Avena fatua (AVEFA) [4]; 20% in experiment [5]; 20% in the experiment with Lolium perenne (LOLPE) [6]. Further, the pest or weed control at 250 g/ha (in experiment [7]; in the experiment on Avena fatua (AVEFA) [8]) was 0% each time.
As for `CCc1ccc(Oc2nc3ccccc3o2)cc1C1=C(O)C(C)(C)OC(C)(C)C1=O` [Example A-118], the pest or weed control at 250 g/ha stood at 100% in experiment [1]; 100% in the experiment with Lolium perenne (LOLPE) [2]; 90% in experiment [3]; 80% in the experiment on Avena fatua (AVEFA) [4]; 100% in experiment [5]; 100% with Lolium perenne (LOLPE) [6]. Further, the results for the pest or weed control at 250 g/ha (in experiment [7]; in the experiment on Avena fatua (AVEFA) [8]) were 100% and 80%, respectively.
Turning to `CCc1ccc(Oc2cc(C)c(Cl)nn2)cc1C1=C(O)C(C)(C)OC(C)(C)C1=O` [Example A-121], the pest or weed control at 250 g/ha in experiment [1] stood at 50%; with Lolium perenne (LOLPE) [2] it was 20%; in experiment [3], 10%; in the experiment on Avena fatua (AVEFA) [4], 0%; in experiment [5] it was 10%; in the experiment on Lolium perenne (LOLPE) [6], 0%. In addition, the pest or weed control at 250 g/ha was 10% in experiment [7] and 0% in the experiment with Avena fatua (AVEFA) [8].
Consider `CCc1ccc(Oc2ncc(C)cn2)cc1C1=C(O)C(C)(C)OC(C)(C)C1=O` [Example A-123], for which the pest or weed control at 250 g/ha in experiment [1] was 50%; with Lolium perenne (LOLPE) [2], 30%; in experiment [3], 20%; with Avena fatua (AVEFA) [4], 10%; in experiment [5] it was 30%; in the experiment with Lolium perenne (LOLPE) [6] it was 20%. Moreover, the pest or weed control at 250 g/ha in experiment [7] was determined as 30%; in the experiment with Avena fatua (AVEFA) [8] it was 0%.
Take `CCc1ccc(Oc2ccc(OC)nn2)cc1C1=C(O)C(C)(C)OC(C)(C)C1=O` [Example A-124]: the pest or weed control at 250 g/ha in experiment [1] came out at 40%; in the experiment on Lolium perenne (LOLPE) [2], 10%; in experiment [3] it was 10%; in the experiment on Avena fatua (AVEFA) [4] it was 0%; in experiment [5], 10%; in the experiment on Lolium perenne (LOLPE) [6] it was 0%. Further, the pest or weed control at 250 g/ha (in experiment [7]; in the experiment with Avena fatua (AVEFA) [8]) was 0% throughout.
Regarding `CCc1ccc(Oc2ncnc3sccc23)cc1C1=C(O)C(C)(C)OC(C)(C)C1=O` [Example A-126], the pest or weed control at 250 g/ha was 50% in experiment [1]; 10% with Lolium perenne (LOLPE) [2]; 10% in experiment [3]; 20% in the experiment with Avena fatua (AVEFA) [4]; 10% in experiment [5]; 0% in the experiment with Lolium perenne (LOLPE) [6]. Also, the pest or weed control at 250 g/ha (in experiment [7]; with Avena fatua (AVEFA) [8]) was 0% each time.
On to `CCc1ccc(Oc2nc(OC)cc(OC)n2)cc1C1=C(O)C(C)(C)OC(C)(C)C1=O` [Example A-127], for which the pest or weed control at 250 g/ha in experiment [1] worked out at 30%; with Lolium perenne (LOLPE) [2], 10%; in experiment [3] it was 0%; in the experiment on Avena fatua (AVEFA) [4] it was 0%; in experiment [5] it was 0%; in the experiment with Lolium perenne (LOLPE) [6] it was 0%. Moreover, the pest or weed control at 250 g/ha (in experiment [7]; in the experiment with Avena fatua (AVEFA) [8]) was 0% each time.
As for `CCCc1cnc(Oc2ccc(CC)c(C3=C(O)C(C)(C)OC(C)(C)C3=O)c2)nc1` [Example A-128], the pest or weed control at 250 g/ha was 70% in experiment [1]; 40% in the experiment with Lolium perenne (LOLPE) [2]; 50% in experiment [3]; 30% in the experiment on Avena fatua (AVEFA) [4]; 50% in experiment [5]; 60% in the experiment with Lolium perenne (LOLPE) [6]. Further, the values for the pest or weed control at 250 g/ha (in experiment [7]; with Avena fatua (AVEFA) [8]) were 20% and 10%, respectively.
Turning to `CCc1ccc(Oc2cc(Cl)c(Cl)nn2)cc1C1=C(O)C(C)(C)OC(C)(C)C1=O` [Example A-129], the pest or weed control at 250 g/ha came out at 30% in experiment [1]; 10% in the experiment on Lolium perenne (LOLPE) [2]; 10% in experiment [3]; 10% in the experiment on Avena fatua (AVEFA) [4]; 30% in experiment [5]; 10% with Lolium perenne (LOLPE) [6]. The pest or weed control at 250 g/ha in experiment [7] was 10%; in the experiment on Avena fatua (AVEFA) [8] it was 0%.
Regarding `CCc1ccc(Oc2cc(Cl)nc(C)n2)cc1C1=C(O)C(C)(C)OC(C)(C)C1=O` [Example A-130], the pest or weed control at 250 g/ha was 40% in experiment [1]; 10% in the experiment with Lolium perenne (LOLPE) [2]; 10% in experiment [3]; 0% in the experiment with Avena fatua (AVEFA) [4]; 30% in experiment [5]; 0% in the experiment with Lolium perenne (LOLPE) [6]. For the same compound, the pest or weed control at 250 g/ha (in experiment [7]; with Avena fatua (AVEFA) [8]) was 0% throughout.
